Experimental data published in patent publication US20210093531A1, “DERIVATIVES OF MENTHOL AND USES THEREOF” (Board of Trustees of Northern Illinois University, priority 2019, published 2021).
Marks after values point to notes of the source that are not given here.

How the values were obtained:
trained panelists [1] = experiment: time-intensity analysis of cooling, lozenge application; format: in vivo; conditions: 4-minute window
Description: In order to evaluate the potential use of menthol glycinates as […] different food, beverage and oral hygiene products, select compounds were incorporated in different application systems. A beverage model system, a lozenge and a mouthwash application were created, and time-intensity analysis was performed using trained discrimination analysis panelists. Time-Intensity (TI) is a temporal sensory method. During TI evaluations, assessors are asked to score the intensity of perception of a single attribute over consumption of the product. Compared to single point measurements, TI analysis can characterize the onset, decline and rates thereof, of particular sensory characteristics. This analysis may reveal rich information regarding the intensity of an attribute over the time domain and identify temporal perceptual differences among samples that can greatly impact the overall profile of a product. For each sample evaluation, a temporal curve is generated, based on duplication. The temporal curves for each panelist are combined to generate a combined curve for each product that is evaluated. The following distinct parameters were calculated: Imax: peak intensity or maximum observed intensity on the whole curve; […]: time point where the reaction to the stimulus is first perceived on the curve; Tmax: time position of the peak intensity on the curve; Tplateau: protraction of maximum intensity or duration of maximum intensity; Text: time point of extinction of the perception of the stimulus, defined as the position in time after the peak intensity where the measured intensity disappears (or the end of evaluation window); Iext: intensity at time of extinction or end of evaluation; R increase: slope or rate of intensity increase between […] and Tmax; R decrease: slope or rate of intensity decrease between Tmax and Text; and Area: the total area under the time-intensity curve. The formula detailed in Table 4 was employed to create the lozenge application to evaluate menthol glycinates of interest using time-intensity analysis. [table] For time-intensity (T-I) evaluation of the cooling intensity of lozenges, 9 panelists were recruited (3 male, 6 female). Panelists were trained in basic taste descriptive analysis. A sweetness reference series (intensity range 2-12) was provided to be used as cross-modality reference to aid in scaling the intensity of the cool attribute present in the lozenge samples. Panelists evaluated samples in duplicates and all samples were presented blinded and in a randomized order using a 3-digit code. Panelists were instructed to provide cooling intensity at predetermined time points throughout an evaluation window of 4 minutes. […] Evaluations were performed with at least 4 hours between them to ensure no carry over. Data analysis for generation of T-I statistics and ANOVA analysis to determine significant difference among samples was performed using R STUDIO.

trained panelists [2] = experiment: time-intensity analysis of cooling, mouthwash application; format: in vivo; conditions: for Iext (cooling intensity at end of evaluation): 15 minutes after expectoration
Description: In order to evaluate the potential use of menthol glycinates as […] different food, beverage and oral hygiene products, select compounds were incorporated in different application systems. A beverage model system, a lozenge and a mouthwash application were created, and time-intensity analysis was performed using trained discrimination analysis panelists. Time-Intensity (TI) is a temporal sensory method. During TI evaluations, assessors are asked to score the intensity of perception of a single attribute over consumption of the product. Compared to single point measurements, TI analysis can characterize the onset, decline and rates thereof, of particular sensory characteristics. This analysis may reveal rich information regarding the intensity of an attribute over the time domain and identify temporal perceptual differences among samples that can greatly impact the overall profile of a product. For each sample evaluation, a temporal curve is generated, based on duplication. The temporal curves for each panelist are combined to generate a combined curve for each product that is evaluated. The following distinct parameters were calculated: Imax: peak intensity or maximum observed intensity on the whole curve; […]: time point where the reaction to the stimulus is first perceived on the curve; Tmax: time position of the peak intensity on the curve; Tplateau: protraction of maximum intensity or duration of maximum intensity; Text: time point of extinction of the perception of the stimulus, defined as the position in time after the peak intensity where the measured intensity disappears (or the end of evaluation window); Iext: intensity at time of extinction or end of evaluation; R increase: slope or rate of intensity increase between […] and Tmax; R decrease: slope or rate of intensity decrease between Tmax and Text; and Area: the total area under the time-intensity curve. The formula shown in Table 8 was employed to create a mouthwash product to evaluate […] of interest using time-Intensity analysis. [table] The following test compounds were evaluated: menthol, XI-I-60, RK-2-10, XI-I-65, DK-1-50, and XI-2-73. For time-intensity (T-I) evaluation of the cooling attributes of mouthwash products, 8 panelists were recruited (2 male, 6 female). Panelists were trained in basic taste descriptive analysis. A sweetness reference series (intensity range 2-12) was provided to be used as cross-modality reference to aid in scaling the intensity of the cooling attribute present in the mouthwash samples. Panelists evaluated samples in duplicates and all sample were presented blinded and in a randomized order using a 3-digit code. Panelist evaluated 15 ml of mouthwash at a time and were instructed to rinse for 30 seconds and expectorate. Panelists were instructed to provide cooling intensities before and after expectoration. For the time before expectoration, evaluation started upon introducing the sample and every 10 seconds thereafter. After expectoration, the evaluation continued for 15 minutes and panelists provided cooling intensity ratings at predetermined times. Due to the unique nature of this product and the interest in prolonging the cooling attribute long after consumption, an additional parameter led was evaluated among samples via ANOVA. This parameter is the cooling intensity at time of extinction or in our case the end of evaluation. Data analysis for generation of T-I statistics and ANOVA analysis to determine significant difference among samples was performed using R STUDIO.

[3] = estimated, relative to menthol; cited from earlier work
[4] = after expectoration for 15 minutes (Table 9b)
[5] = rinse phase 30 seconds (Table 9a)

Compound | Iext (cooling intensity at end of evaluation) (trained panelists [2]) | AUC (trained panelists [2]; [4]) | I max (trained panelists [2]; [4]) | Rdec (trained panelists [2]; [4]) | Tmax (trained panelists [2]; [4]) | Tstart (trained panelists [2]; [4]) | AUC (trained panelists [2]; [5]) | Rinc (trained panelists [2]; [5]) | Tstart (trained panelists [2]; [5]) | AUC (total area under time-intensity curve) (trained panelists [1]) | times cooler than menthol (cooling potential) [3] | also measured
CC(C)NCC(=O)O[C@@H]1C[C@H](C)CC[C@H]1C(C)C [Product 7, (1R,2S,5R)-2-Isopropyl-5-methylcyclohexyl 2-(isopropylamino)acetate] | significantly higher cooling intensity | significantly higher | – | – | – | – | – | – | – | – | – | Tstart (time cooling first perceived) (trained panelists [1]): significantly delayed cooling onset; Imax (trained panelists [2]; [5]): trending higher; Rdec (trained panelists [2]; [5]): significantly lower R decrease
(1R,2S,5R)-2-Isopropyl-5-methylcyclohexyl 2-(benzyl(methyl)amino)acetate [Product 15] | 0.67^a | 4082.50^ac | 13.50^ab | −0.01^b | 32.50^a | 30.00^a | 179.79^a | 0.21^a | 10.00^a | – | – | –
CC(C)[C@@H]1CC[C@@H](C)C[C@H]1OC(=O)CNC1CC1 [Product 12, (1R,2S,5R)-2-isopropyl-5-methylcyclohexyl 2-(cyclopropylamino)acetate] | – | 5211.25^bc | 13.20^ab | −0.01^b | 32.50^a | 30.00^a | 186.88^a | 0.23^a | 10.00^a | not significantly different than menthol | – | Iext (cooling intensity at end of evaluation) (trained panelists [2]; listed as XI-1-66): significantly higher cooling intensity; Iext (cooling intensity at end of evaluation) (trained panelists [2]; listed as XI-I-65): 2.18^b; Rinc (trained panelists [2]; after expectoration for 15 minutes (Table 9b), listed as XI-I-65): 0.03^b; Rinc (trained panelists [2]; after expectoration for 15 minutes (Table 9b), listed as XI-I-66): positive and significantly higher compared to that of menthol; Rdec (trained panelists [2]; rinse phase 30 seconds (Table 9a), listed as XI-165): significantly lower R decrease; Rdec (trained panelists [2]; rinse phase 30 seconds (Table 9a), listed as XI-I-65): 0.00^b
(1R,2S,5R)-2-isopropyl-5-methylcyclohexyl 2-(cyclopropylamino)acetate [Product 12] | – | – | – | – | – | – | – | – | – | 1945.31^bc | – | RDec (rate of intensity decrease) (trained panelists [1]): 0.042^ab; RInc (rate of intensity increase) (trained panelists [1]): 0.042^ab; Tmax (time of peak intensity) (trained panelists [1]): 206.25^a
CC(C)[C@@H]1CC[C@@H](C)C[C@H]1C(=O)NCCc1ccccn1 [amide 19] | – | – | – | – | – | – | – | – | – | – | about 100 times | –
Cc1cc2ccccc2n1CCNC(=O)[C@@H]1C[C@H](C)CC[C@H]1C(C)C [compound 1] | – | – | – | – | – | – | – | – | – | – | ~1000 times | –
